Where “and” joins values, the source holds several entries; their conditions need not be identical. Identical values can stand only once.
How the values were obtained:
Assay in all cases: CTG-3D luminescence at 96 h relative to day-0 seeding control (ratio to day 0); higher = more growth / less cytotoxicity; PDxO 3D drug screen (set 2), 96 h, CTG-3D normalised to day-0 seeding control.
HCI-001 = test system: HCI-001 (organoid from a triple-negative breast cancer xenograft)
HCI-010 = test system: HCI-010 (organoid from a breast cancer xenograft)
HCI-019 = test system: HCI-019 (organoid from a triple-negative breast cancer xenograft)
HCI-016 = test system: HCI-016 (organoid from a triple-negative breast cancer xenograft)
MDA-MB-231 = test system: MDA-MB-231
HCI-005.E2 = test system: HCI-005.E2 (organoid from a breast cancer xenograft with a HER2-positive history)

Nc1cc(C(F)(F)F)c(-c2cc(N3CCOCC3)nc(N3CCOCC3)n2)cn1 [buparlisib]
CTG-3D luminescence at 96 h
Conditions	12.5 pM	0.00025 µM	0.005 µM	0.1 µM	1 µM	10 µM	100 µM	625 fM
HCI-001, days in culture: 365	3.09	2.29	2.5	3.19	1.82	0.687	0.646	1.89
HCI-001, days in culture: 397	1.95	2.38	2.48	2.22	1.46	0.715	0.507	1.44
HCI-001, days in culture: 401	1.47	1.87	1.41	1.86	1.11	0.572	0.512	1.76
HCI-010, days in culture: 79	1.69	1.83	1.84	1.83	1.02	0.456	0.0891	2
HCI-010, days in culture: 86	2	2.29	2.49	2.33	1.36	0.525	0.146	2.19
HCI-010, days in culture: 102	1.08	1.24	1.36	1.38	0.738	0.309	0.0336	0.982
HCI-010, days in culture: 164	1.62	1.52	1.57	1.65	1.04	0.556	0.11	1.37
HCI-016, days in culture: 305	2.89	2.88	2.23	4.87	1.89	0.444	0.606	5.12
HCI-016, days in culture: 327	1.19	1.21	1.32	2.02	1.16	0.497	0.431	1.23
HCI-016, days in culture: 341	2.17	1.78	2.04	2.44	1.48	0.65	0.484	2.59
HCI-016, days in culture: 397	1.77	2.39	1.33	2.74	1.41	0.71	0.511	2.25
HCI-019, days in culture: 173	2.34	1.59	2.11	1.58	1.45	0.425	0.353	1.61
HCI-019, days in culture: 194	1.92	1.72	2.05	2.27	0.78	0.454	0.358	3.95
HCI-019, days in culture: 215	1.75	1.27	1.46	1.85	0.763	0.382	0.188	1.2

CTG-3D luminescence at 96 h
Conditions	12.5 pM	0.00025 µM	0.005 µM	0.1 µM	1 µM	10 µM	100 µM	625 fM
HCI-005.E2	1.84	2.58	2.64	3.03	1.45	0.703	0.594	2.11
MDA-MB-231	5.18	5.23	5.28	5.17	4.45	2.28	2.15	5.31

CC(C)n1nc(-c2ccc3oc(N)nc3c2)c2c(N)ncnc21 [sapanisertib]
CTG-3D luminescence at 96 h
Conditions	12.5 pM	0.00025 µM	0.005 µM	0.1 µM	1 µM	10 µM	100 µM	625 fM
HCI-001, days in culture: 365	2.81	2.2	2.02	1.47	0.787	0.663	0.424	1.97
HCI-001, days in culture: 397	1.78	1.58	1.37	0.91	0.823	0.77	0.471	1.56
HCI-001, days in culture: 401	1.48	1.97	1.53	0.815	0.544	0.657	0.396	1.63
HCI-010, days in culture: 79	1.62	1.71	1.53	0.599	0.388	0.119	0.00579	1.95
HCI-010, days in culture: 86	2.29	2.56	2.36	0.928	0.647	0.182	0.012	2.51
HCI-010, days in culture: 102	1.31	1.4	1.07	0.401	0.241	0.0381	0.00408	1.02
HCI-010, days in culture: 164	1.54	1.67	1.55	0.695	0.643	0.245	0.0314	1.37
HCI-016, days in culture: 305	2.57	3.24	2.48	1.62	0.527	0.566	0.455	3.26
HCI-016, days in culture: 327	1.38	1.23	1.37	0.784	0.464	0.679	0.258	1.7
HCI-016, days in culture: 341	2.37	1.72	2.04	1.14	0.566	0.673	0.378	2.96
HCI-016, days in culture: 397	1.83	2.36	1.47	1.2	0.701	0.688	0.324	2.37
HCI-019, days in culture: 173	2.61	0.967	1.48	1.01	0.438	0.352	0.0514	1.71
HCI-019, days in culture: 194	1.66	1.19	1.63	0.737	0.441	0.49	0.0673	3.01
HCI-019, days in culture: 215	1.78	1.21	1.14	0.664	0.531	0.192	0.0431	1.84

CTG-3D luminescence at 96 h
Conditions	12.5 pM	0.00025 µM	0.005 µM	0.1 µM	1 µM	10 µM	100 µM	625 fM
HCI-005.E2	1.96	2.23	2.42	1.23	0.685	0.506	0.0873	1.98
MDA-MB-231	5.39	5.2	4.98	–	2.67	1.74	0.758	5.28

CS(=O)(=O)CCNCc1ccc(-c2ccc3ncnc(Nc4ccc(OCc5cccc(F)c5)c(Cl)c4)c3c2)o1 [lapatinib]
CTG-3D luminescence at 96 h
Conditions	12.5 pM	0.00025 µM	0.005 µM	0.1 µM	1 µM	10 µM	100 µM	625 fM
HCI-001, days in culture: 365	2.34	2.26	2.24	2.56	1.9	1.3	0.109	1.46
HCI-001, days in culture: 397	1.64	2.11	2.14	1.37	1.64	1.63	0.127	1.29
HCI-001, days in culture: 401	1.46	1.83	1.73	1.59	1.25	1.44	0.0402	1.52
HCI-010, days in culture: 79	1.89	1.81	2.03	2.16	2.02	0.69	-0.00188	2.06
HCI-010, days in culture: 86	2.21	2.38	2.53	2.49	2.33	0.631	0.0027	2.48
HCI-010, days in culture: 102	1.1	1.16	1.11	1.32	1.48	0.154	8.25e-05	1.09
HCI-010, days in culture: 164	1.78	1.5	1.5	1.46	1.78	0.353	0.000987	1.63
HCI-016, days in culture: 305	2.19	2.44	2.88	3.72	1.92	0.286	-0.00685	4
HCI-016, days in culture: 327	1.07	0.931	1.47	1.74	1.12	0.284	0.000753	2.05
HCI-016, days in culture: 341	2.29	1.62	2.18	1.86	1.6	0.474	-0.00181	2.42
HCI-016, days in culture: 397	1.92	2.19	2.02	2.38	1.32	0.254	-0.000202	2.47
HCI-019, days in culture: 173	1.7	2.33	1.14	2.61	1.9	0.415	0.078	1.93
HCI-019, days in culture: 194	1.47	2.84	1.45	2.84	1.7	0.531	0.0607	2.78
HCI-019, days in culture: 215	1.96	2.03	1.85	1.67	1.66	0.323	0.00321	2.07

CTG-3D luminescence at 96 h
Conditions	12.5 pM	0.00025 µM	0.005 µM	0.1 µM	1 µM	10 µM	100 µM	625 fM
HCI-005.E2	1.84	2.04	2.54	2.55	2.58	0.551	0.00117	2.11
MDA-MB-231	5.64 and 5.22	5.66 and 5.01	5.76 and 5.34	5.51 and 5.1	5.57 and 4.9	–	0.00446 and 0.0132	5.54 and 5.06

— the supplement of paper PMC8882468
